Results published in ChEMBL document CHEMBL3885861, “Open TG-GATES”.

Species on record: Rattus norvegicus
Experiment: Open TG-GATES - Regimen: Single
Assay type: toxicity, organism-based, Sprague-Dawley
Set-up: regimen Single, gender Male, age 6 weeks
Settings: in vivo, po, 250 mg/kg, route gavage, dose level Middle; for APTT / Bas / Eos / Fbg / Hb / Ht / Lym / MCH / MCHC / MCV / Mono / Neu / PT / Plat / RBC / Ret / WBC: tissue Blood; for KIDNEY_L / KIDNEY_R / KIDNEY_TOTAL: tissue Kidney; for LIVER: tissue Liver; for A/G / ALP / ALT / AST / BUN / CRE / Ca / Cl / DBIL / GLC / IP / K / LDH / Na / PL / RALB / TBIL / TC / TG / TP / gamma-GTP: tissue Plasma

## CN(C/C=C/C#CC(C)(C)C)Cc1cccc2ccccc12 [TERBINAFINE]
3 h
  TERMINAL_BW: 225.8 g
  APTT: 20 s
  Bas: 0.6%
  Eos: 0.8%
  Fbg: 215.8 mg/dL
  Hb: 13.2 g/dL
  Ht: 39.2%
  Lym: 79.4%
  MCH: 21.8 pg
  MCHC: 33.7%
  MCV: 64.7 fL
  Mono: 2.2%
  Neu: 16.6%
  PT: 12.2 s
  Plat: 125.2 x10_4/uL
  RBC: 606.8 x10_4/ul
  Ret: 7.2%
  WBC: 90.5 x10_2/uL
  KIDNEY_L: 1 g
  KIDNEY_R: 1 g
  KIDNEY_TOTAL: 2 g
  LIVER: 10.4 g
  A/G: 1.7
  ALP: 909.4 IU/L
  ALT: 42.4 IU/L
  AST: 72.8 IU/L
  BUN: 12 mg/dL
  CRE: 0.4 mg/dL
  Ca: 10.6 mg/dL
  Cl: 103.6 meq/L
  DBIL: 0.084 mg/dL
  GLC: 213 mg/dL
  IP: 9.1 mg/dL
  K: 3.9 meq/L
  LDH: 166.8 IU/L
  Na: 141.4 meq/L
  PL: 123.8 mg/dL
  RALB: 3.4 g/dL
  TBIL: 0.1 mg/dL
  TC: 65 mg/dL
  TG: 43.8 mg/dL
  TP: 5.4 g/dL
  gamma-GTP: 1 IU/L
6 h
  TERMINAL_BW: 221.8 g
  APTT: 18.1 s
  Bas: 0.4%
  Eos: 0.8%
  Fbg: 220.6 mg/dL
  Hb: 13.3 g/dL
  Ht: 39.5%
  Lym: 74%
  MCH: 21.5 pg
  MCHC: 33.7%
  MCV: 64 fL
  Mono: 2.4%
  Neu: 22.2%
  PT: 12.3 s
  Plat: 110.3 x10_4/uL
  RBC: 617.4 x10_4/ul
  Ret: 6.8%
  WBC: 90.7 x10_2/uL
  KIDNEY_L: 1 g
  KIDNEY_R: 1 g
  KIDNEY_TOTAL: 2 g
  LIVER: 9.6 g
  A/G: 1.8
  ALP: 842.8 IU/L
  ALT: 36 IU/L
  AST: 70.6 IU/L
  BUN: 11.4 mg/dL
  CRE: 0.4 mg/dL
  Ca: 10.6 mg/dL
  Cl: 102.8 meq/L
  DBIL: 0.086 mg/dL
  GLC: 204 mg/dL
  IP: 9.7 mg/dL
  K: 4 meq/L
  LDH: 156 IU/L
  Na: 141.4 meq/L
  PL: 132.2 mg/dL
  RALB: 3.5 g/dL
  TBIL: 0.2 mg/dL
  TC: 71.8 mg/dL
  TG: 35.2 mg/dL
  TP: 5.4 g/dL
  gamma-GTP: 1 IU/L
9 h
  TERMINAL_BW: 220.9 g
  APTT: 18.2 s
  Bas: 0.6%
  Eos: 1%
  Fbg: 211.6 mg/dL
  Hb: 12.8 g/dL
  Ht: 38.5%
  Lym: 77.8%
  MCH: 20.8 pg
  MCHC: 33.3%
  MCV: 62.3 fL
  Mono: 2.4%
  Neu: 18.2%
  PT: 12.5 s
  Plat: 114.8 x10_4/uL
  RBC: 618 x10_4/ul
  Ret: 6.3%
  WBC: 74.3 x10_2/uL
  KIDNEY_L: 1 g
  KIDNEY_R: 1 g
  KIDNEY_TOTAL: 2 g
  LIVER: 9.1 g
  A/G: 1.6
  ALP: 845 IU/L
  ALT: 31.4 IU/L
  AST: 67.6 IU/L
  BUN: 12 mg/dL
  CRE: 0.4 mg/dL
  Ca: 10.3 mg/dL
  Cl: 103.4 meq/L
  DBIL: 0.074 mg/dL
  GLC: 198.2 mg/dL
  IP: 10.8 mg/dL
  K: 4.1 meq/L
  LDH: 153 IU/L
  Na: 141.8 meq/L
  PL: 122 mg/dL
  RALB: 3.4 g/dL
  TBIL: 0.1 mg/dL
  TC: 64 mg/dL
  TG: 26.6 mg/dL
  TP: 5.5 g/dL
  gamma-GTP: 1.4 IU/L
24 h
  TERMINAL_BW: 237.1 g
  APTT: 18.5 s
  Bas: 0.6%
  Eos: 1%
  Fbg: 223.8 mg/dL
  Hb: 13.4 g/dL
  Ht: 39.8%
  Lym: 79.2%
  MCH: 21.4 pg
  MCHC: 33.8%
  MCV: 63.3 fL
  Mono: 3.2%
  Neu: 15.6%
  PT: 12 s
  Plat: 127.3 x10_4/uL
  RBC: 628.2 x10_4/ul
  Ret: 6.6%
  WBC: 91.5 x10_2/uL
  KIDNEY_L: 1.1 g
  KIDNEY_R: 1.1 g
  KIDNEY_TOTAL: 2.2 g
  LIVER: 11.9 g
  A/G: 1.6
  ALP: 1068.6 IU/L
  ALT: 46.4 IU/L
  AST: 84.6 IU/L
  BUN: 15.4 mg/dL
  CRE: 0.4 mg/dL
  Ca: 10.7 mg/dL
  Cl: 103.2 meq/L
  DBIL: 0.098 mg/dL
  GLC: 191.2 mg/dL
  IP: 8.6 mg/dL
  K: 3.9 meq/L
  LDH: 193.8 IU/L
  Na: 141.4 meq/L
  PL: 135 mg/dL
  RALB: 3.4 g/dL
  TBIL: 0.2 mg/dL
  TC: 72.4 mg/dL
  TG: 84 mg/dL
  TP: 5.5 g/dL
  gamma-GTP: 1.6 IU/L
